In series [1] the test system is plasma membrane of several mammalian cell types. To be noted: energy-independent manner; Zhao et al., J. Pharmacol Exp Ther., 304:425-432, 2003; cited from earlier work.
The subject of series [2] is heart mitochondrial cardiolipin. Kind of series: 18:2 cardiolipin in left ventricle heart muscle, dog model of heart failure (shotgun lipidomics). The format is in vivo. The settings on record: HF dogs, 0.5 mg/kg/day intravenously, 12 weeks, versus normal dogs (NL) and untreated HF dogs (HF-CON). The source says: In this Example, the effect of aromatic-cationic peptide such as D-Arg-2′6′-Dmt-Lys-Phe-NH2 on heart mitochondrial cardiolipin levels in dogs with coronary microembolization-induced heart failure will be investigated.
Heart failure will be induced in dogs via multiple sequential intracoronary microembolizations as described in Sabbah, et al., Am J Physiol. (1991) 260:H1379-84, herein incorporated by reference in its entirety. Half the dogs will be subsequently treated with the mitochondrial peptide; the other half will be treated with drug vehicle and serve as controls. Peptide treatment will be started upon induction of heart failure (HF), defined as left ventricular ejection fraction of approximately 30%. The daily dose of the peptide will be 0.5 mg/kg/day administered intravenously. At the end of the treatment phase (12 weeks) dogs in both the vehicle and treatment groups will be sacrificed and a sample of heart muscle from the left ventricle will be removed, washed with saline, and immediately frozen and stored at −80° C. For cardiolipin analysis, lipids will be extracted from the heart tissue sample with a chloroform/methanol solution (Bligh Dyer extraction). […]

Series [3] deals with mu-opioid receptor (Homo sapiens, UniProt P35372). Kind of series: mu-opioid receptor agonist activity. To be noted: stated in the description, no test described.
The test system of series [4] is dogs with coronary microembolization-induced heart failure. Kind of series: LV function and mitochondrial ATP synthesis, dog model of heart failure. In kind it is in vivo. The settings on record: HF dogs, chronic treatment.
For series [5], the system named is TAZ1 mRNA. Kind of series: TAZ1 mRNA in LV tissue by real-time PCR, dog model of heart failure. The format is in vivo. The settings on record: HF dogs, 0.5 mg/kg subcutaneous once daily, three months, normalized to GAPDH, printed as e.g. about ... or more. The source says: In this Example, the effect of the aromatic-cationic peptide D-Arg-2′6′-Dmt-Lys-Phe-NH2 on cardiolipin remodeling enzymes, MLCL AT1, ALCAT1, and TAZ1 in dogs with coronary microembolization-induced heart failure will be investigated.
Heart failure will be induced in dogs via multiple sequential intracoronary microembolizations as described in Sabbah, et al., Am J Physiol. (1991) 260:H1379-84, herein incorporated by reference in its entirety.
Twelve dogs will be subject to coronary microembolization-induced heart failure (LV ejection fraction ˜30%). Subjects will be randomized into D-Arg-2′6′-Dmt-Lys-Phe-NH2-treated and control groups for a three-month trial. Subjects will receive subcutaneous injections of D-Arg-2′6′-Dmt-Lys-Phe-NH2 (0.5 mg/kg once daily, n=6) or saline (Untreated-HF Control, n=6). RNA will be prepared from LV tissue of all subjects at the end of the treatment phase and from the LV of six normal subject controls. Levels of TAZ1 mRNA will be determined by real-time PCR. Changes in mRNA levels will be expressed as fold reduction using the CT Method, with normalization to a […] (GAPDH) internal control.
On the technique in general: Quantitative PCR measures a nucleic acid by following its amplification.

The conditions of series [6]: cited from earlier work.

The values below come from patent publication US12297502B2, “Methods and compositions for detecting and diagnosing diseases and conditions” (Stealth BioTherapeutics Inc., priority 2013, dated 2025).

Sequence of mu-opioid receptor (P35372 whole entry, species assumed): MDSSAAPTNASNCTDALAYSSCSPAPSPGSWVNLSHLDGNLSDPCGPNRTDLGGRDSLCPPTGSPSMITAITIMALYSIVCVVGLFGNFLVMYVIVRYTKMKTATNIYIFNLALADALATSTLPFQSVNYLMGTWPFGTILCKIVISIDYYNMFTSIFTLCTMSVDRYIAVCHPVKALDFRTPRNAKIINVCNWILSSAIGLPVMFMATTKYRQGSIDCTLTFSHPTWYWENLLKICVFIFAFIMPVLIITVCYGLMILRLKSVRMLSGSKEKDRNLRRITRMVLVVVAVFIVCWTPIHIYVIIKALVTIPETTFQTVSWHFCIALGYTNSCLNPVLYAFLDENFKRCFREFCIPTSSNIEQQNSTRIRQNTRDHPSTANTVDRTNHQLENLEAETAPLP

For the substance 2′,6′-Dmt-D-Arg-Phe-Lys-NH2, in series [1], the “penetration of cell membranes” value is “readily penetrates”.

In the case of D-Arg-2′6′-Dmt-Lys-Phe-NH2, the “levels of 18:2 cardiolipin” value in series [2] was “normalize”. In addition, the “mu-opioid receptor agonist activity” value in series [3] is on record as “does not have mu-opioid receptor agonist activity”. Also, in series [4], the LV function entry was “improved” and the “rate of mitochondrial ATP synthesis” value is on record as “improved”. Also, the “attenuation of the decrease of TAZ1 mRNA” value in series [5] was 1-1.23 fold.

For the substance cardiolipin, the pK2 in series [6] (ionization of both phosphates) is listed as above 7.5. Besides, in series [6] (ionization of one phosphate), the pK1 is given as 3.
